Laboratory results reported in patent publication US11426393B2, “Prolyl hydroxylase inhibitors and methods of use” (Akebia Therapeutics, Inc., priority 2006, dated 2022).
pEC50, pIC50: −log10 of the molar value.

These compounds were tested against human EGLN-1 (Homo sapiens (Human), UniProt Q9GZT9) (assay: EGLN-1 activity assay (MALDI-TOF MS)). Settings: read-out: EGLIN1 IC50.
Type: biochemical
Protocol: (§1) Data defined as percent conversion of substrate to product is analyzed in GraphPad Prism 4 to calculate IC50 values.

Chain of human EGLN-1 (Q9GZT9 179-426): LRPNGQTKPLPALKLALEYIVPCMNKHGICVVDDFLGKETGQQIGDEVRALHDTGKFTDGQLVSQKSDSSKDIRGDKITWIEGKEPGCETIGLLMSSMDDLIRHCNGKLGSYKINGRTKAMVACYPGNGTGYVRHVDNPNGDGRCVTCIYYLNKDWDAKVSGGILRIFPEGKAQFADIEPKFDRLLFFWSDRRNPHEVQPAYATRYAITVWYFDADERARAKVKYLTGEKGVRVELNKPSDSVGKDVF

Row | Compound | pIC50
1 | CNC(=O)CNC(=O)c1ncc(-c2cccc(Cl)c2)cc1O | 5.92

What follows are compounds tested against human EGLN-3 (Homo sapiens (Human), UniProt Q9H6Z9) (assay: EGLN-3 activity assay (MALDI-TOF MS)). Settings: His-MBP-TVMV-EGLN-3 fusion; HIF-1α peptide 556-574 as substrate; read-out: EGLIN3 IC50.
Chain of human EGLN-3 (Q9H6Z9 whole entry, the tested form may be a part): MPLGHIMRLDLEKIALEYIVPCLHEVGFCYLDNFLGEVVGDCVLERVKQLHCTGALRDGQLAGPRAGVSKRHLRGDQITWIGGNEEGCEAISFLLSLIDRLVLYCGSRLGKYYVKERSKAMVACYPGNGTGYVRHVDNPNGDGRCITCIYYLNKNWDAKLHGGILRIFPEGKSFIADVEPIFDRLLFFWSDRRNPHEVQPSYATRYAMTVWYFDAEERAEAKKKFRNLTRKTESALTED
Type: biochemical
Protocol: as §1

Row | Compound | pIC50
2 | CNC(=O)CNC(=O)c1ncc(-c2cccc(Cl)c2)cc1O | 5.89

The compounds below were run on VEGF (assay: VEGF ELISA assay). Settings: Homo sapiens; HEK293 cells; % of DFO stimulation.
Type: cell-based
Protocol: HEK293 cells are seeded in 96-well poly-lysine coated plates at 20,000 ceils per well in DMEM (10% FBS, 1% NEAA, 0.1% glutamine). Following overnight incubation, the cells are washed with 100 uL of Opti-MEM (Gibco, Carlsbad, Calif.) to remove serum. Compound in DMSO is serially diluted (beginning with 100 μM) in Qpti-MEM and added to the cells. The conditioned media is analyzed for VEGF with a Quantikine human VEGF immunoassay kit (R&D Systems, Minneapolis, Minn.). Optical density measurements at 450 nm are recorded using the Spectra Max 250 (Molecular Devices, Sunnyvale, Calif.). Data defined as % of DFO stimulation is used to calculate EC50 values with GraphPad Prism 4 software (San Diego, Calif.).

Row | pEC50 | Compound
3 | 5.48 | Cc1ccc(Cl)cc1-c1cnc(C(=O)NCC(=O)O)c(O)c1
4 | 5.00 | COC(=O)CNC(=O)c1ncc(-c2cccc(Cl)c2)cc1O
5 | 5.11 | COC(=O)CNC(=O)c1ncc(-c2ccccc2Cl)cc1O
6 | < 4.00 | COC(=O)CNC(=O)c1ncc(-c2cccc(C(=O)N3CCCC3)c2)cc1O
7 | < 4.00 | O=C(O)CNC(=O)c1ncc(-c2cccc(C(=O)N3CCCC3)c2)cc1O
8 | 5.12 | O=C(O)CNC(=O)c1ncc(-c2cccc(Cl)c2)cc1O [drawing 122]
9 | < 4.00 | Cc1ccc(-c2ccc(C(=O)NCC(=O)O)c(O)c2)cc1
10 | 5.09 | COC(=O)CNC(=O)c1ncc(-c2ccc(C)cc2)cc1O
11 | < 4.00 | COC(=O)CNC(=O)c1ncc(-c2ccc(Cl)cc2)cc1O
12 | < 4.00 | N#Cc1cccc(-c2cnc(C(=O)NCC(=O)O)c(O)c2)c1
13 | 4.30 | COC(=O)CNC(=O)c1ncc(-c2cccc(C(N)=O)c2)cc1O
14 | < 4.00 | CC(C)Oc1ccc(-c2cnc(C(=O)NCC(=O)O)c(O)c2)cc1
15 | 4.82 | CC(C)c1ccc(-c2cnc(C(=O)NCC(=O)O)c(O)c2)cc1
16 | < 4.00 | O=C(O)CNC(=O)c1ncc(-c2cccc(-c3nn[nH]n3)c2)cc1O

Row | Compound | pEC50
17 | CNC(=O)CNC(=O)c1ncc(-c2cccc(Cl)c2)cc1O | 5.85

Each compound was assayed on EPO (assay: Mouse serum EPO assay (mouse ischemic hindlimb study)). Settings: in vivo response, mouse serum EPO.
Type: in vivo
Protocol: (§2) Mouse Ischemic Hindlimb Study
(§3) All animal work is conducted in accordance with the Guide for the Care and Use of Laboratory Animals (National Academy of Sciences; Copyright©1996) and the Institutional Animal Care and Use Committee guidelines at Procter and Gamble Pharmaceuticals. We studied 9-10 week old male C57Bl/6 mice from Charles River Laboratory (Portage, Mich.). The mice are orally dosed with vehicle (aqueous carbonate buffer, 50 mM; pH 9.0) or compound 1 in vehicle at 50 mg/kg or 100 mg/kg. The animals are dosed three times: day 1 at 8 am and 5 pm, day 2 at […]. One hour after the first dose, unilateral arterial ligation is performed under anesthesia using isoflurane. The femoral artery is ligated proximal to the origin of the popliteal artery. The contralateral limb underwent a sham surgical procedure. Ligation is performed in an alternating fashion between right and left hindlimbs. Two hours after 8 am dosing on day 2, we obtained blood by ventricular stick while the mice are anesthetized with isoflurane. Serum samples for EPO analysis are obtained using gel clot serum separation tubes. Heart, liver, and gastrocnemius muscles are harvested, snap-frozen in liquid nitrogen, and stored in −80° C. until use.
The mouse serum EPO is detected using Mouse Quantikine Erythropoietin ELISA kit from R&D Systems according to manufacturer's ins tractions.

Row | Compound | EPO response
18 | CNC(=O)CNC(=O)c1ncc(-c2cccc(Cl)c2)cc1O | yes

Same assay, conditions: mouse serum after oral dosing, FIG. 2

Row | Compound | erythropoietin level versus vehicle
19 | O=C(O)CNC(=O)c1ncc(-c2cccc(Cl)c2)cc1O [{[5-(3-Chlorophenyl)-3-hydroxypyridine-2-carbonyl]amino}-acetic acid] | elevated versus vehicle

These compounds were tested on HIF-1α (assay: Mouse tissue HIF Western blot analysis). Settings: mouse liver, FIG. 1.
Type: in vivo
Protocol: as §2, §3
Mouse Tissue HIF Western Blot Analysis
Tissues from mice stored at −80° C. are powdered with mortar and pestle chilled with liquid nitrogen. […]

Row | Compound | stabilization of HIF-1α (immunoblot analysis of nuclear extracts)
20 | O=C(O)CNC(=O)c1ncc(-c2cccc(Cl)c2)cc1O [{[5-(3-Chlorophenyl)-3-hydroxypyridine-2-carbonyl]amino}-acetic acid] | stabilization of HIF-1α
